The values below are quoted from earlier work in patent publication US6797282B2, “Combination progestin oral contraceptive regimen” (Ortho-McNeil Pharmaceutical, Inc., priority 1997, dated 2004).

The subject of the data set is endometrium. The conditions noted are these: primates; Wilborn et al 1984.

Turning to `C#C[C@]1(OC(C)=O)CC[C@H]2[C@@H]3CCC4=CC(=NO)CC[C@@H]4[C@H]3CC[C@@]21CC` (mixture of isomers) [Norgestimate], the “effect on endometrium in comparison to other progestins” value was “endometrial sparing effect”.
